Reference: article PMC7822874, “Chemoprotective antimalarials identified through quantitative high-throughput screening of Plasmodium blood and liver stage parasites” (Scientific Reports, 2021)

What follows are molecules tested on Plasmodium falciparum Dd2 asexual blood stage parasites (assay: microbe, parasite or virus in culture). Settings: Plasmodium falciparum, DD2, Erythrocyte, 72 h; read-out: AC50.
Parameters: species or system Plasmodium falciparum Dd2 in human erythrocytes; single determination (one 11-point concentration-response curve)
`Cc1ccc2c(n1)N(C)[C@H](CO)CCN(Cc1ccc(C(F)(F)F)cc1)C2` [NCGC00395284-01] gave an AC50 of 15.3 µM. For `C[C@H]1[C@@H]2[C@@H](O)C([C@H](C)C(=O)NCc3cc(F)cc(F)c3)CC[C@@]2(C)CC[C@@H]1NC(=O)c1cncnc1` (some centres unmarked) [NCGC00395377-01], the AC50 was 4.22 µM. `COc1ccccc1CNC(=O)[C@@H](C)C1CC[C@@]2(C)CC[C@H](NC(=O)c3cncnc3)[C@@H](C)[C@@H]2[C@H]1O` (some centres unmarked) [NCGC00395379-01] gave an AC50 of 2.37 µM. `CC1=C[C@@H](CN2CCCC2)[C@H](C(C)C)C[C@H]1Cc1nnc(-c2ccc([N+](=O)[O-])cc2)o1` [NCGC00395425-01] showed an AC50 of 3.85 µM. For `COc1cccc(NC(=O)N[C@H]2C[C@@H](c3nc(C)no3)N(C)C2)c1` [NCGC00395440-01], the AC50 was 17.2 µM. With `CN(C)Cc1cc(C[C@@H]2C[C@H](NCc3ccccc3O)C2(C)C)no1` [NCGC00395458-01] the AC50 was 17.2 µM. `O[C@H]1[C@H](NCC2CCCC2)[C@@H](c2ccccc2)C[C@H]1O` [NCGC00395463-01] gave an AC50 of 6.11 µM. Molecule `C=CCOC(=O)Nc1nc2c(s1)C[C@@H]1[C@](C)(CO)[C@H](O)CC[C@@]1(C)[C@@H]2CC(=O)NC1CCCCC1` [NCGC00395650-01] has an AC50 of 3.76 µM. Molecule `O=C(Nc1ccc2n(c1=O)C[C@H]1C[C@@H]2CN(Cc2ccc(F)cc2)C1)c1cccs1` [NCGC00395674-01] has an AC50 of 15.3 µM. Molecule `CC1=C[C@@H](CN2CCN(c3ncccn3)CC2)[C@H](C(C)C)C[C@H]1Cc1nnc(COc2ccc(F)cc2)o1` [NCGC00395820-01] has an AC50 of 0.75 µM. `CC(=O)NCCNC[C@@H]1C=C(C)[C@H](Cc2nnc(-c3ccccc3)o2)C[C@H]1C(C)C` [NCGC00395892-01] gave an AC50 of 17.2 µM. For `Fc1ccccc1CN1CCC[C@H]1c1nc(-c2ccnc(N3CCOCC3)c2)no1` [NCGC00395913-01], the AC50 was 15.3 µM. `NC(=O)c1cccc2nc([C@H]3CCN(Cc4ccccn4)C3)[nH]c12` [NCGC00396190-01] showed an AC50 of 1.53 µM. `COc1ccc(NC(=O)O[C@@H]2CC[C@]3(C)C(CC[C@@H](O)[C@H]3CC(=O)NCc3ccccc3OC)[C@]2(C)CO)cc1` (some centres unmarked) [NCGC00398535-01] showed an AC50 of 6.68 µM. For `COC(=O)[C@H](Cc1ccc(OC)cc1)NC(=O)[C@H]1CN(C(=O)c2ccc(N(C)C)cc2)CCN1C(=O)C1CCCCC1` [NCGC00398660-01], the AC50 was 0.668 µM. In the case of `COC(=O)[C@H](Cc1ccc(OC)cc1)NC(=O)[C@H]1CN(C(=O)c2ccc(N(C)C)cc2)CCN1C(=O)c1cccs1` [NCGC00398661-01], the AC50 is reported as 0.188 µM. Molecule `C#C[C@H]1C[N@@]2CC[C@H]1C[C@@H]2CNCc1ccc(F)c(F)c1` [NCGC00399053-01] has an AC50 of 13.7 µM. In the case of `Cn1nc(C2CCCCC2)cc1[C@H]1CN2CC[C@H]1C[C@@H]2CNC(=O)c1cccs1` [NCGC00399662-01], the AC50 is reported as 13.7 µM. `Cn1nc(C2CCCCC2)cc1[C@H]1CN2CC[C@H]1C[C@@H]2CNC(=O)COc1ccccc1` [NCGC00399666-01] gave an AC50 of 15 µM. Molecule `CC(C)NC(=O)OC[C@H]1C[C@@H]2CCN1C[C@@H]2c1cc(-c2ccc(F)cc2)nn1C` [NCGC00399718-01] has an AC50 of 13.7 µM. `COc1ccc(-c2cc([C@H]3CN4CC[C@H]3C[C@@H]4CNC(=O)NC3CCCCC3)n(C)n2)cc1` [NCGC00399776-01] showed an AC50 of 1.88 µM. Molecule `COc1ccc([S+](=O)([O-])NC[C@H]2C[C@@H]3CC[N@]2C[C@@H]3CN(C)Cc2ccccc2)cc1` [NCGC00400093-01] has an AC50 of 4.73 µM. For `CCC(CC)c1cc([C@H]2CN3CC[C@H]2C[C@@H]3CNC(=O)c2ccc(C)cc2)nc(-c2ccncc2)n1` [NCGC00400216-01], the AC50 was 10.6 µM. Work on `CCC(CC)c1cc([C@H]2CN3CC[C@H]2C[C@@H]3CNC(=O)c2ccccc2)nc(-c2ccncc2)n1` [NCGC00400223-01] yielded an AC50 of 10.6 µM. With `CCC(CC)c1cc([C@H]2CN3CC[C@H]2C[C@@H]3CNC(=O)NCc2ccccc2)nc(-c2ccncc2)n1` [NCGC00400244-01] the AC50 was 4.22 µM. Work on `O=C(C[C@@H]1CCNC[C@@H]1Cc1cc(CSc2ccccc2)on1)N1CCN(c2ccccc2)CC1` [NCGC00400854-01] yielded an AC50 of 8.41 µM. `Oc1ccccc1CN[C@H]1[C@H](O)[C@@H](N2CCC(Cc3ccccc3)CC2)[C@@H]2OC[C@H]1O2` [NCGC00400924-01] was tested, and the AC50 was 3.44 µM. With `COc1ccc(CNC[C@H]2O[C@H](Cc3cc(-c4ccc(OC)cc4)on3)CC[C@@H]2O)cc1` [NCGC00401026-01] the AC50 was 10.6 µM. With `COc1ccc(CNC[C@H]2O[C@H](Cc3cc(-c4ccccc4)on3)CC[C@@H]2O)cc1` [NCGC00401044-01] the AC50 was 3.85 µM. In the case of `CN(Cc1ccccc1)C(=O)[C@H]1O[C@H](CCN2CCN(c3ccc(F)cc3)CC2)CC[C@@H]1O` [NCGC00401502-01], the AC50 is reported as 5.96 µM. Work on `Cc1nc(-c2ccco2)cc([C@H]2CN3CC[C@H]2C[C@@H]3CNCc2ccccc2)n1` [NCGC00401513-01] yielded an AC50 of 4.33 µM. `COc1ccc2nc(C[C@@H]3C[C@@H](C(C)C)[C@H](CNCc4cccnc4)C=C3C)[nH]c2n1` [NCGC00401578-01] gave an AC50 of 19.3 µM. Work on `COc1ccc(C(=O)N[C@@H]2CN(Cc3cccc(OC)c3)CCC[C@H]2O)cc1` [NCGC00401653-01] yielded an AC50 of 10.9 µM. In the case of `COC(=O)[C@@H]1Cc2ncn(Cc3ccc(OC)cc3)c2CN1[S+](=O)([O-])Cc1ccccc1` [NCGC00401681-01], the AC50 is reported as 15 µM. `COC(=O)[C@@H]1Cc2ncn(Cc3ccc(OC)cc3)c2CN1[S+](C)(=O)[O-]` [NCGC00401682-01] showed an AC50 of 19.3 µM. `CC1=C[C@@H](CNCCN(C)C)[C@H](C(C)C)C[C@H]1Cc1nnc(C(C)(C)C)o1` [NCGC00401821-01] gave an AC50 of 15.3 µM. With `O=C1CO[C@H]2CCN(Cc3ccc4c(c3)CCO4)CC[C@@H]2N1Cc1ccccc1` [NCGC00409937-01] the AC50 was 17.2 µM. `COc1ccc2cc1Nc1ccc(cc1)C[C@H](NCc1cccc(C(=O)O)c1)C(=O)N(C)[C@H](C(=O)Nc1ccccc1OCc1ccccc1)C2` [NCGC00410264-01] showed an AC50 of 4.73 µM. `COc1ccc2cc1Nc1ccc(cc1)C[C@H](NC(=O)c1cc3ccccc3n1C)C(=O)N(C)[C@H](C(=O)NCCC(C)C)C2` [NCGC00410275-01] showed an AC50 of 10.6 µM. `COc1ccc2cc1Nc1ccc(cc1)C[C@H](NCc1ccc(C)o1)C(=O)N(C)[C@@H](C(=O)NCc1ccccc1)C2` [NCGC00410280-01] gave an AC50 of 5.31 µM. Work on `COc1ccc2cc1Nc1ccc(cc1)C[C@H](NC(=O)c1cccnc1)C(=O)N(C)[C@@H](C(=O)NCCOc1ccccc1)C2` [NCGC00410281-01] yielded an AC50 of 4.22 µM. `COc1ccc2cc1Nc1ccc(cc1)C[C@H](NC(=O)Cc1cccc(Cl)c1)C(=O)N(C)[C@H](C(=O)NCCOc1ccccc1)C2` [NCGC00410283-01] gave an AC50 of 7.5 µM. In the case of `COc1ccc2cc1Nc1ccc(cc1)C[C@H](NCc1ccc(C)o1)C(=O)N(C)[C@H](C(=O)NCCC(C)C)C2` [NCGC00410286-01], the AC50 is reported as 5.96 µM. `COc1ccc2cc1Nc1ccc(cc1)C[C@H](NCc1ccc3c(c1)CCO3)C(=O)N(C)[C@H](C(=O)NCCC(C)C)C2` [NCGC00410296-01] gave an AC50 of 3.35 µM. For `COc1ccc2cc1Nc1ccc(cc1)C[C@H](NC(=O)c1ccc(Oc3ccccc3)cc1)C(=O)N(C)[C@@H](C(=O)Nc1ccccc1)C2` [NCGC00410310-01], the AC50 was 2.11 µM. Molecule `c1ccc(Nc2cc3c(cn2)CN(Cc2ccsc2)CCN3)cc1` [NCGC00411091-01] has an AC50 of 13.7 µM. In the case of `CN(C)c1cccc(Nc2cc3c(cn2)CN(Cc2ccccc2)CCN3)c1` [NCGC00411230-01], the AC50 is reported as 13.7 µM. Work on `Cc1noc2c(NC3CCN(C)CC3)cc(-c3cccc(C(F)(F)F)c3)nc12` [NCGC00411487-01] yielded an AC50 of 13.7 µM. `Oc1ccccc1-c1cc(C2=CCOCC2)c2cncn2c1` [NCGC00412161-01] gave an AC50 of 9.68 µM. `COc1ccc(-c2cc(-c3ccc(N4CCOCC4)nc3)cn3cncc23)cc1` [NCGC00412184-01] was tested, and the AC50 was 7.69 µM.
